What follows are molecules tested against SIRT6 enzyme (Homo sapiens, UniProt Q8N6T7) (assay: Measurement of deacetylation activity (SIRT6, AlphaLISA, H3K9(Ac) peptide)). Conditions: SIRT6 25 ng/mL, H3K9(Ac) biotin peptide 2 nM, NAD 10 μM, room temperature 30 minutes, duplicate.
Format: biochemical
Procedure: The reaction was performed in duplicate using a white 384-well plate (3824, Corning or 6008350, PerkinElmer) at a final reaction liquid volume of 20.1 μL. As a control for calculating the enzyme activity, the enzyme-added (DMSO (+)) and enzyme-free (DMSO (−)) wells were set at n=8. Test substances (examples of final concentrations: 0.046, 0.14, 0.41, 1.2, 3.7, 11, 33, and 100 μM) at a concentration of 100 times or 0.1 μL of DMSO was dispensed into the plate and 5 μL of SIRT6 enzyme (prepared by Daiichi Sankyo RD Novare Co., Ltd., final concentration: 25 ng/mL) diluted with an assay buffer (10 mM Tris-HCl pH of 8.0, 0.1% BSA, 0.01% Tween 20, 1 mM DTT, 12.5% Glycerol) was added thereto. The enzymatic reaction was started by adding 5 μL of a mixed solution [Lys(Ac)9]-Histone H3 (1-21)-NH2, H3K9 (Ac), biotin-labeled, amide (AnaSpec, AS-64190, final concentration: 2 nM) and β-nicotinamide adenine dinucleotide (Sigma-Aldrich, N8285-15VL, final concentration: 10 μM), and the reaction was performed at room temperature for 30 minutes. 10 μL of a mixed solution of nicotinamide (Sigma-Aldrich, 72340-100G, final concentration: 100 mM) prepared with AlphaLISA Epigenetics Buffer (PerkinElmer, AL008C), AlphaLISA Anti-unmodified Histone H3 Lysine 9/Lysine 27 (H3K9/K27) Acceptor Beads (PerkinElmer, AL138, final concentration: 10 μg/mL), and AlphaScreen Streptavidin Donor beads (PerkinElmer, 6760002, final concentration: 5 μg/mL) was added thereto, the reaction was performed at room temperature for 60 minutes and then stopped, and acetylation was detected. The emission intensity was measured by EnVision (PerkinElmer).
The relative enzyme activity (%) of the test substance was calculated by the following equation. Relative enzyme activity (%)=[(emission intensity of test substance-added well−emission intensity of DMSO (−) well)/(emission intensity of DMSO (+) well−emission intensity of DMSO (−) well)]×100
The EC150 (the concentration of the compound showing a relative enzyme activity of 150%) of the test substance was calculated based on Sigmoidal dose-response (variable slope) of GraphPad Prism (GraphPad Software) using the value of the relative enzyme activity (%) at each concentration, and the results are listed in Tables 1-1 to 1-5.

Sequence of SIRT6 enzyme (Q8N6T7 whole entry, species assumed): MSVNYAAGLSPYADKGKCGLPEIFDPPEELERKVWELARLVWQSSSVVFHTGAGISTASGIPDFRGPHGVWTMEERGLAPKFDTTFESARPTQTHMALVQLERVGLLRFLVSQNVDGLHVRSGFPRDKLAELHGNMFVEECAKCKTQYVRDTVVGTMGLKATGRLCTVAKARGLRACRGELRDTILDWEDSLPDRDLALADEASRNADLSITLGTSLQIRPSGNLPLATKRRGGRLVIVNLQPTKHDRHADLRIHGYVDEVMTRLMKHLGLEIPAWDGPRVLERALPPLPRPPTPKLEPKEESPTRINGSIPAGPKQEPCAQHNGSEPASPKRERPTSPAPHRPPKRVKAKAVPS

Row | Structure (SMILES) | EC150 (the concentration of the compound showing a relative enzyme activity of 150%) [μm]
1 | COc1nc(-c2cnc(N3[C@@H]4COC[C@H]3c3sc(NC(=O)N[C@H](C)CO)nc3C4)o2)ccc1C [Example 193, N-[(2R)-1-hydroxypropan-2-yl]-N′-{(4S,8S)-10-[5-(6-methoxy-5-methylpyridin-2-yl)-1,3-oxazol-2-yl]-4,7,8,9-tetrahydro-5H-4,8-epiminooxocino[5,4-d][1,3]thiazol-2-yl}urea] | 1.8
2 | C[C@H](CO)NC(=O)Nc1nc2c(s1)[C@@H]1COC[C@H](C2)N1c1nc2cc(F)c(F)cc2o1 [Example 42, N-[(4S,8S)-10-(5,6-difluoro-1,3-benzoxazol-2-yl)-4,7,8,9-tetrahydro-5H-4,8-epiminooxocino[5,4-d][1,3]thiazol-2-yl]-N′-[(2R)-1-hydroxypropan-2-yl]urea] | 1.3
3 | O=C(NCC1(O)CC1)Nc1nc2c(s1)[C@@H]1COC[C@H](C2)N1c1ncc(-c2cccc(OC(F)F)n2)o1 [Example 179, N-[(4S,8S)-10-{5-[6-(difluoromethoxy)pyridin-2-yl]-1,3-oxazol-2-yl}-4,7,8,9-tetrahydro-5H-4,8-epiminooxocino[5,4-d][1,3]thiazol-2-yl]-N′-[(1-hydroxycyclopropyl)methyl]urea] | 0.72
4 | CNC(=O)Nc1nc2c(s1)[C@@H]1CCC[C@H](C2)N1c1nc(-c2ccc(F)cc2)no1 (relative stereo) [Example 12, N-{(5R*,9S*)-10-[3-(4-fluorophenyl)-1,2,4-oxadiazol-5-yl]-4,5,6,7,8,9-hexahydro-5,9-epiminocycloocta[d][1,3]thiazol-2-yl}-N′-methylurea] | 1.4
5 | COc1cccc(-c2cnc(N3[C@@H]4COC[C@H]3c3sc(NC(=O)N[C@H]5CC[C@@H](O)CC5)nc3C4)o2)n1 [Example 187, N-[(1s,4s)-4-hydroxycyclohexyl]-N′-{(4S,8S)-10-[5-(6-methoxypyridin-2-yl)-1,3-oxazol-2-yl]-4,7,8,9-tetrahydro-5H-4,8-epiminooxocino[5,4-d][1,3]thiazol-2-yl}urea] | 0.64
6 | O=C(NCc1cc[nH]c(=O)c1)Nc1nc2c(s1)CN(c1nc(C3CCC(F)(F)CC3)no1)CC2 [Example 101, N-{5-[3-(4,4-difluorocyclohexyl)-1,2,4-oxadiazol-5-yl]-4,5,6,7-tetrahydro[1,3]thiazolo[5,4-c]pyridin-2-yl}-N′-[(2-oxo-1,2-dihydropyridin-4-yl)methyl]urea] | 1.1
7 | CNC(=O)Nc1nc2c(s1)C1CN(C(=O)OC)CC(C2)N1c1nc(-c2ccc(F)cn2)no1 (centres unmarked) [Example 142, Methyl 10-[3-(5-fluoropyridin-2-yl)-1,2,4-oxadiazol-5-yl]-2-[(methylcarbamoyl)amino]-4,7,8,9-tetrahydro-4,8-epimino[1,3]thiazolo[5,4-d]azocine-6(5H)-carboxylate] | 3.3
8 | CNC(=O)Nc1nc2c(s1)[C@@H]1CC[C@H](C2)N1c1nc(-c2ccc(F)cc2)no1 (relative stereo) [Example 10, N-{(5R*,8S*)-9-[3-(4-fluorophenyl)-1,2,4-oxadiazol-5-yl]-5,6,7,8-tetrahydro-4H-5,8-epiminocyclohepta[d][1,3]thiazol-2-yl}-N′-methylurea] | 1.0
9 | COc1cccc(-c2cnc(N3[C@@H]4COC[C@H]3c3sc(NC(=O)NC5CCOCC5)nc3C4)o2)n1 [Example 186, N-{(4S,8S)-10-[5-(6-methoxypyridin-2-yl)-1,3-oxazol-2-yl]-4,7,8,9-tetrahydro-5H-4,8-epiminooxocino[5,4-d][1,3]thiazol-2-yl}-N′-oxan-4-ylurea] | 0.48
10 | C[C@H](CO)NC(=O)Nc1nc2c(s1)[C@@H]1COC[C@H](C2)N1c1nc2cc(F)cc(F)c2o1 [Example 147, N-[(4S,8S)-10-(5,7-difluoro-1,3-benzoxazol-2-yl)-4,7,8,9-tetrahydro-5H-4,8-epiminooxocino[5,4-d][1,3]thiazol-2-yl]-N′-[(2R)-1-hydroxypropan-2-yl]urea] | 3.3
11 | O=C(Nc1nc2c(s1)[C@@H]1COC[C@H](C2)N1c1ncc(-c2cccc(OC(F)F)c2)o1)N[C@H]1C[C@H](O)C1 [Example 167, N-[(4S,8S)-10-{5-[3-(difluoromethoxy)phenyl]-1,3-oxazol-2-yl}-4,7,8,9-tetrahydro-5H-4,8-epiminooxocino[5,4-d][1,3]thiazol-2-yl]-N′-[(1r,3S)-3-hydroxycyclobutyl]urea] | 0.43
12 | O=C(Nc1nc2c(s1)[C@@H]1COC[C@H](C2)N1c1nc(C2(C(F)(F)F)CC2)no1)N[C@@H]1CCOC1 [Example 37, N-[(3R)-oxolan-3-yl]-N′-[(4S,8S)-10-{3-[1-(trifluoromethyl)cyclopropyl]-1,2,4-oxadiazol-5-yl}-4,7,8,9-tetrahydro-5H-4,8-epiminooxocino[5,4-d][1,3]thiazol-2-yl]urea] | 4.6
13 | CNC(=O)Nc1nc2c(s1)C1CN(C(=O)OC)CC(C2)N1c1cc(-c2ccc(F)cc2)on1 (centres unmarked) [Example 64, Methyl 10-[5-(4-fluorophenyl)-1,2-oxazol-3-yl]-2-[(methylcarbamoyl)amino]-4,7,8,9-tetrahydro-4,8-epimino[1,3]thiazolo[5,4-d]azocine-6(5H)-carboxylate] | 0.49
14 | CNC(=O)Nc1nc2c(s1)C1CN(C(C)=O)CC(C2)N1c1nc(-c2cccc(F)c2)no1 (centres unmarked) [Example 138, N-{6-acetyl-10-[3-(3-fluorophenyl)-1,2,4-oxadiazol-5-yl]-4,5,6,7,8,9-hexahydro-4,8-epimino[1,3]thiazolo[5,4-d]azocin-2-yl}-N′-methylurea] | 0.46
15 | CNC(=O)Nc1nc2c(s1)C1COCC(C2)N1c1nnc(-c2cccc(OC(C)(C)C)c2)o1 (centres unmarked) [Example 111, N-{10-[5-(3-tert-butoxyphenyl)-1,3,4-oxadiazol-2-yl]-4,7,8,9-tetrahydro-5H-4,8-epiminooxocino[5,4-d][1,3]thiazol-2-yl}-N′-methylurea] | 2.2
16 | CNC(=O)Nc1nc2c(s1)[C@@H]1COC[C@H](C2)N1c1nnc(-c2cccc(C(=O)C3CC3)c2)o1 [Example 21, N-[(4S,8S)-10-{5-[3-(cyclopropanecarbonyl)phenyl]-1,3,4-oxadiazol-2-yl}-4,7,8,9-tetrahydro-5H-4,8-epiminooxocino[5,4-d][1,3]thiazol-2-yl]-N′-methylurea] | 1.5
17 | CNC(=O)Nc1nc2c(s1)C1CN(C(C)=O)CC(C2)N1c1nc(-c2ccc(F)cc2)no1 (centres unmarked) [Example 19, N-{6-acetyl-10-[3-(4-fluorophenyl)-1,2,4-oxadiazol-5-yl]-4,5,6,7,8,9-hexahydro-4,8-epimino[1,3]thiazolo[5,4-d]azocin-2-yl}-N′-methylurea] | 0.60
18 | CNC(=O)Nc1nc2c(s1)[C@H]1CN(C(C)=O)C[C@@H](C2)N1c1nc(-c2ccc(F)cc2)no1 (relative stereo) [Example 23, (−)-N-{(4R*,8R*)-6-acetyl-10-[3-(4-fluorophenyl)-1,2,4-oxadiazol-5-yl]-4,5,6,7,8,9-hexahydro-4,8-epimino[1,3]thiazolo[5,4-d]azocin-2-yl}-N′-methylurea] | 0.19
19 | C[C@H](CO)NC(=O)Nc1nc2c(s1)CN(c1nc(C3CCC(F)(F)CC3)no1)CC2 [Example 5, N-{5-[3-(4,4-difluorocyclohexyl)-1,2,4-oxadiazol-5-yl]-4,5,6,7-tetrahydro[1,3]thiazolo[5,4-c]pyridin-2-yl}-N′-[(2R)-1-hydroxypropan-2-yl]urea] | 1.5
20 | CNC(=O)Nc1nc2c(s1)C1CN(C(=O)OC)CC(C2)N1c1nc(C2CCC(F)(F)CC2)no1 (centres unmarked) [Example 132, Methyl 10-[3-(4,4-difluorocyclohexyl)-1,2,4-oxadiazol-5-yl]-2-[(methylcarbamoyl)amino]-4,7,8,9-tetrahydro-4,8-epimino[1,3]thiazolo[5,4-d]azocine-6(5H)-carboxylate] | 0.39

Source: US11981686B2, “Urea compound having substituent” (DAIICHI SANKYO COMPANY, LIMITED, priority 2019, dated 2024)
